Like-named read-outs stand apart in the source and are kept apart here.
Key:
[1] = system: cholesterol and triglycerides; assay: Hypocholesterolemiating and hypolipemiating activity in normolipemiating rats (Table III); format: in vivo; settings: rat, gastric probe, equivalent of 75 mg/kg clofibrate every 12 hours, 10 days; for Triglycerides: untreated 1.13; for Cholesterol: untreated 90.79; for Cholesterol, decrease / Triglycerides, decrease: versus untreated
Procedure: Groups of 10 normolipemiating rats were treated for 10 days, by gastric probe, with the equivalent of 75 mg/kg of clofibrate, administered every 12 hours. After 10 days, 12 hours after the last administration, they were sacrificed and the cholesterol and triglycerides analysed (Table III).

[2] = Acute toxicity on the male rat, p.o. (Table I); settings: in vivo, po
Procedure: The acute toxicity of compounds I to VI was determined on the male rat (Table I).

[3] = comparison value given in text, no source or test printed; cited from earlier work

| Structure (SMILES) | Triglycerides [1] | Cholesterol [1] | Cholesterol, decrease [1] | Triglycerides, decrease [1] | LD50 [2] | LD50 [3] |
| --- | --- | --- | --- | --- | --- | --- |
| CC(=O)Oc1ccccc1C(=O)OCCOC(=O)C(C)(C)Oc1ccc(Cl)cc1 [Compound VI, 1-(acetylsalicyloxy)-2-(2-p-chlorophenoxy-2-methylpropionyloxy)-ethane] | 0.83 mm mole/l. | 67.34 mg/100 ml | 26% | 27% | > 6000 mg/kg | – |
| CC(=O)Oc1ccccc1C(=O)O [acetylsalicylic acid] | – | – | – | – | – | 1750 mg/kg |
| CC(=O)Oc1ccccc1C(=O)OCC(COC(=O)C(C)(C)Oc1ccc(Cl)cc1)OC(=O)C(C)(C)Oc1ccc(Cl)cc1 (stereo not drawn) [Compound III, 3-(acetylsalicyloxy)-1,2-di-(2-p-chlorophenoxy-2-methylpropionyloxy)-propane] | 0.91 mm mole/l. | 75.63 mg/100 ml | 17% | 19% | > 6200 mg/kg | – |
| CC(=O)Oc1ccccc1C(=O)OC1C(OC(=O)c2ccccc2OC(C)=O)C(OC(=O)C(C)(C)Oc2ccc(Cl)cc2)C(OC(=O)C(C)(C)Oc2ccc(Cl)cc2)C(OC(=O)C(C)(C)Oc2ccc(Cl)cc2)C1OC(=O)C(C)(C)Oc1ccc(Cl)cc1 (stereo not drawn) [Compound I, 1,2-di-(acetylsalicyl)-3,4,5,6-tetra-(2-p-chlorophenoxy-2-methylpropionyl)-meso-inositol] | 0.96 mm mole/l. | 78.25 mg/100 ml | 14% | 15% | > 5000 mg/kg | – |
| CC(=O)Oc1ccccc1C(=O)OCC(COC(=O)C(C)(C)Oc1ccc(Cl)cc1)OS(=O)(=O)O (stereo not drawn) [Compound V] | 0.89 mm mole/l. | 68.38 mg/100 ml | 25% | 21% | > 5000 mg/kg | – |
| CC(=O)Oc1ccccc1C(=O)OCC(COC(=O)C(C)(C)Oc1ccc(Cl)cc1)OC(C)=O (stereo not drawn) [Compound IV, 1-(acetylsalicyloxy)-3-(2-p-chlorophenoxy-2-methylpropionyloxy)-2-acetoxy-propane] | 0.97 mm mole/l. | 72.12 mg/100 ml | 21% | 14% | > 5000 mg/kg | – |
| CC(=O)Oc1ccccc1C(=O)OC(COC(=O)C(C)(C)Oc1ccc(Cl)cc1)COC(=O)C(C)(C)Oc1ccc(Cl)cc1 [Compound II, 1,3-di-(2-p-chlorophenoxy-2-methylpropionyloxy)-2-(acetylsalicyloxy)-propane] | 0.92 mm mole/l. | 73.90 mg/100 ml | 19% | 19% | > 7500 mg/kg | – |
| CCOC(=O)C(C)(C)Oc1ccc(Cl)cc1 [clofibrate, reference compound] | 0.83 mm mole/l. | 65.24 mg/100 ml | 28% | 27% | – | 1200 mg/kg |
